The source of these data is patent publication US10899738B2 (THE REGENTS OF THE UNIVERSITY OF MICHIGAN, priority 2016, dated 2021).

In one assay the target is menin protein (Homo sapiens (Human), UniProt O00255). Nature of the assay: biochemical. As to conditions: FP competitive binding; menin protein 4 nM, FAM-MM2 probe 2 nM; read-out: Menin Binding Affinity IC50. It counts as binding. In a few lines:
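Competitive fluorescence polarization assay using FAM-labelled MLL1 peptide probe FAM-MM2 (2 nM final) preincubated with menin (4 nM final) in PBS with 0.02% bovine γ-globulin, 4% DMSO and 0.01% Triton X-100. Compounds were added and incubated 30 min at room temperature. IC50 came from nonlinear regression of competition curves, with Ki also derived.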

A short description of assay [1]: Cell growth inhibition, CellTiter-Glo Luminescent Cell Viability Assay. Type of assay: cell-based. As for the experimental part:
Cell growth inhibitory activity of representative menin inhibitors was determined using CellTiter-Glo® Luminescent Cell Viability Assay. Cells were seeded in 384-well white opaque cell culture plates at a density of 2,000 cells/well with serially diluted compounds and incubated at 37° C. in an atmosphere of 95% air and 5% CO2 for 4 days. Cell viability was determined using the CellTiter-Glo® Luminescent Cell Viability Assay Kit (Promega, Madison, Wis.) according to the manufacture's instruction. Briefly, a volume of CellTiter-Glo® Reagent equal to the volume of cell culture medium was added to each well, and then the plates were incubated at room temperature for 10-20 minutes. The luminescent signal was measured using a Tecan Infinite M1000 multimode microplate reader (Tecan, Morrisville, N.C.). The half maximal inhibitory concentration (IC50) was calculated using the GraphPad Prism 5 software (GraphPad Software, La Jolla, Calif.).
(In general: Cellular ATP, detected with luciferase, serves as a proxy for viable cell number.)

[2] abbreviates: MOLM-13, 96 h, read-out: Cell Growth Inhibition IC50 (μM) MOLM13, MOLM13 cells, 4 days, CellTiter-Glo.
Setting [3] is: MV4-11, 96 h, read-out: Cell Growth Inhibition IC50 (μM) MV4, 11, MV4, 11 cells, 4 days, CellTiter-Glo.
[4] abbreviates: MOLM-13, 96 h, MOLM13 cells, 4 days, CellTiter-Glo, read-out: Cell Growth Inhibition IC50 (μM) MOLM13.
Where [5] appears, read: MV4-11, 96 h, MV4, 11 cells, 4 days, CellTiter-Glo, read-out: Cell Growth Inhibition IC50 (μM) MV4, 11.

SMILES strings stand for the structures. Read-outs that look alike come from different tables or passages of the source.

Sequence of menin protein (O00255 whole entry): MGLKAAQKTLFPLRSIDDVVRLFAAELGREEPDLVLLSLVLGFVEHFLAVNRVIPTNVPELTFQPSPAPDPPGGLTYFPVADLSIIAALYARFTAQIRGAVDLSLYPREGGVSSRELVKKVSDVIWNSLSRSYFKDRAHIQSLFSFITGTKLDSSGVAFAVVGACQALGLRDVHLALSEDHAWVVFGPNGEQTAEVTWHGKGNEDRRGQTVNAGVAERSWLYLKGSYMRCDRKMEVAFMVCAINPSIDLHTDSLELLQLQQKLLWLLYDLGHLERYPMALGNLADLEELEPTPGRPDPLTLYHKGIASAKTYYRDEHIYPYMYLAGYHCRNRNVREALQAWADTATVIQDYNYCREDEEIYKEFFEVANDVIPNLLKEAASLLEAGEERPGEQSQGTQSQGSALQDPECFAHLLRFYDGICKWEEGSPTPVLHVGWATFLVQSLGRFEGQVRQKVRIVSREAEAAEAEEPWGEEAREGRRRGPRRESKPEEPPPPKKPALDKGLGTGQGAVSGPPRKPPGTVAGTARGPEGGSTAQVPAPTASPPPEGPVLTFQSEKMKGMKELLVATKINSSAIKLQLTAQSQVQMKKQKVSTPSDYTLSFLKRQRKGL

Usually IC50 stands for the concentration needed to halve the response being measured. For the compound `CNC(=O)O[C@H]1CCC[C@@H]1C(Cn1ccnc1C)(c1cccc(F)c1)C1CCN(CC2CN(c3ccc(S(=O)(=O)c4cnn(C)c4)cc3)C2)CC1` (mixture of isomers) [compound 411, rac-(1S,2R)-2-(1-(3-fluorophenyl)-2-(2-methyl-1H-imidazol-1-yl)-1-(1-((1-(4-((1-methyl-1H-pyrazol-4-yl)sulfonyl)phenyl)azetidin-3-yl)methyl)piperidin-4-3-yl)ethyl)cyclopentyl methylcarbamate], the results for the IC50 (at menin protein; in assay [1] (setting [2]); in assay [1] (setting [3])) were 3 nM, 0.016 µM and 0.003 µM, respectively.

For the compound `N#CC(c1ccccc1)(C1CCN(CC2CN(c3ccc(S(=O)(=O)c4ccccc4)cc3)C2)CC1)[C@H]1CCC[C@@H]1OC(N)=O` (mixture of isomers) [compound 223, rac-(1S,2R)-2-(cyano(phenyl)(1-((1-(4-(phenylsulfonyl)phenyl)azetidin-3-yl)methyl)piperidin-4-yl)methyl)cyclopentyl carbamate], the IC50 at menin protein was determined as 14 nM; in assay [1] (setting [2]) it was 0.49 µM; in assay [1] (setting [3]), 0.29 µM.

With `CNC(=O)O[C@H]1CCC[C@@H]1C(C#N)(c1ccccc1)C1CCN(CCCOc2ccc(C#N)cc2)CC1` (mixture of isomers) [compound 232, rac-(1S,2R)-2-(cyano(1-(3-(4-cyanophenoxy)propyl)piperidin-4-yl)(phenyl)methyl)cyclopentyl methylcarbamate], the IC50 turned out to be 20 nM at menin protein, 0.94 µM in assay [1] (setting [2]) and 0.3 µM in assay [1] (setting [3]).

Regarding `CNC(=O)N[C@H]1CCC[C@@H]1C1(C2CCN(CC3CN(c4ccc(S(=O)(=O)c5ccncc5)cc4)C3)CC2)CN(C)Cc2ccccc21` (mixture of isomers) [compound 277, rac-1-methyl-3-((1S,2R)-2-(2-methyl-4-(1-((1-(4-(pyridin-4-ylsulfonyl)phenyl)azetidin-3-yl)methyl)piperidin-4-yl)-1,2,3,4-tetrahydroisoquinolin-4-yl)cyclopentyl)urea], the results for the 50% inhibitory concentration (IC50) (at menin protein; in assay [1] (setting [2]); in assay [1] (setting [3])) were 8 nM, 0.43 µM and 0.12 µM, respectively.

With `CC(=O)N[C@H]1CCC[C@@H]1C1(C2CCN(CC3CN(c4ccc(S(=O)(=O)c5ccncc5)cc4)C3)CC2)CN(C)Cc2ccccc21` (mixture of isomers) [compound 271, rac-N-((1S,2R)-2-(2-methyl-4-(1-((1-(4-(pyridin-4-ylsulfonyl)phenyl)azetidin-3-yl)methyl)piperidin-4-yl)-1,2,3,4-tetrahydroisoquinolin-4-yl)cyclopentyl)acetamide], the IC50 on menin protein was 5 nM; in assay [1] (setting [2]), 0.717 ± 0.002 µM; in assay [1] (setting [3]), 0.123 ± 0.043 µM.

With `CNC(=O)O[C@H]1CCC[C@@H]1C(C#N)(c1ccccc1)C1CCN(CC2(F)CN(c3ccc(S(=O)(=O)c4cnn(C)c4)cc3)C2)CC1` (mixture of isomers) [compound 369, rac-(1S,2R)-2-(cyano(1-((3-fluoro-1-(4-((1-methyl-1H-pyrazol-4-yl)sulfonyl)phenyl)azetidin-3-yl)methyl)piperidin-4-yl)(phenyl)methyl)cyclopentyl methylcarbamate], the 50% inhibitory concentration (IC50) is 68 nM at menin protein, 7.71 µM in assay [1] (setting [2]) and 3.5 µM in assay [1] (setting [3]).

Consider `CN(C)C(=O)N[C@H]1CCC[C@@H]1C(C#N)(c1ccccc1)C1CCN(CC2CN(c3ccc(S(=O)(=O)c4ccncc4)cc3)C2)CC1` (mixture of isomers) [compound 275, rac-3-((1S,2R)-2-(cyano(phenyl)(1-((1-(4-(pyridin-4-ylsulfonyl)phenyl)azetidin-3-yl)methyl)piperidin-4-yl)methyl)cyclopentyl)-1,1-dimethylurea], for which the IC50 on menin protein came out at 12 nM; in assay [1] (setting [2]), 0.41 µM; in assay [1] (setting [3]), 0.45 µM.

As for `CC(C)N1Cc2ccccc2C(C2CCCC2)(C2CCN(CC3CN(c4ccc(S(=O)(=O)c5ccncc5)cc4)C3)CC2)C1` (stereo not drawn) [compound 48, 4-cyclopentyl-2-isopropyl-4-(1-((1-(4-(pyridin-4-ylsulfonyl)phenyl)azetidin-3-yl)methyl)piperidin-4-yl)-1,2,3,4-tetrahydroisoquinoline], the values for the IC50 (at menin protein; in assay [1] (setting [4]); in assay [1] (setting [5])) were 7 nM, 2.8 µM and 0.908 µM, respectively.

For the compound `CNC(=O)O[C@H]1CCC[C@@H]1C(Cn1ccnc1)(c1ccccc1)C1CCN(CC2CN(c3ccc(S(=O)(=O)c4ccc(C(=O)O)cc4)cc3)C2)CC1` (mixture of isomers) [compound 363, rac-4-((4-(3-((4-(2-(1H-imidazol-1-yl)-1-((1R,2S)-2-((methylcarbamoyl)oxy)cyclopentyl)-1-phenylethyl)piperidin-1-yl)methyl)azetidin-1-yl)phenyl)sulfonyl)benzoic acid], the IC50 at menin protein stood at 27 nM; in assay [1] (read-out: Cell Growth Inhibition IC50 (μM) MOLM13, MOLM13 cells, 4 days, CellTiter-Glo), 2.64 µM; in assay [1] (read-out: Cell Growth Inhibition IC50 (μM) MV4, 11, MV4, 11 cells, 4 days, CellTiter-Glo) it was 0.56 µM.

As to `CNC(=O)O[C@H]1CCC[C@@H]1C(C#N)(c1ccccc1)C1CCN(CC2(C)CN(c3ccc(S(=O)(=O)c4cnn(C)c4)cc3)C2)CC1` (mixture of isomers) [compound 372, rac-(1S,2R)-2-(cyano(1-((3-methyl-1-(4-((1-methyl-1H-pyrazol-4-yl)sulfonyl)phenyl)azetidin-3-yl)methyl)piperidin-4-yl)(phenyl)methyl)cyclopentyl methylcarbamate], the IC50 at menin protein worked out at 48 nM; in assay [1] (setting [2]), 5.01 µM; in assay [1] (setting [3]), 2.03 µM.

For the compound `CCN1Cc2ccccc2C(C2CCCC2)(C2CCN(CC3CN(c4ccc(S(=O)(=O)c5ccn(C)c5)cc4)C3)CC2)C1` (stereo not drawn) [compound 101, 4-cyclopentyl-2-ethyl-4-(1-((1-(4-((1-methyl-1H-pyrrol-3-yl)sulfonyl)phenyl)azetidin-3-yl)methyl)piperidin-4-yl)-1,2,3,4-tetrahydroisoquinoline], the IC50 amounted to 10 nM on menin protein, 0.73 µM in assay [1] (setting [4]) and 0.3 µM in assay [1] (setting [5]).

Regarding `CNC(=O)O[C@H]1CCC[C@@H]1C(C#N)(c1ccccc1)C1CCN(CC2CN(c3ccc(S(=O)(=O)c4nn(C)cc4Br)cc3)C2)CC1` (mixture of isomers) [compound 228, rac-(1S,2R)-2-((1-((1-(4-((4-bromo-1-methyl-1H-pyrazol-3-yl)sulfonyl)phenyl)azetidin-3-yl)methyl)piperidin-4-yl)(cyano)(phenyl)methyl) cyclopentyl methylcarbamate], the IC50 on menin protein was 4 nM; in assay [1] (setting [2]), 0.25 µM; in assay [1] (setting [3]), 0.18 µM.

Take `CC(=O)O[C@H]1CCC[C@@H]1C1(C2CCN(CC3CN(c4ccc(S(=O)(=O)c5ccnc(C)c5)cc4)C3)CC2)CN(C)Cc2ccccc21` (mixture of isomers) [compound 201, rac-(1S,2R)-2-(2-methyl-4-(1-((1-(4-((2-methylpyridin-4-yl)sulfonyl)phenyl)azetidin-3-yl)methyl)piperidin-4-yl)-1,2,3,4-tetrahydroisoquinolin-4-yl)cyclopentyl acetate]: the IC50 on menin protein amounted to 5 nM; in assay [1] (setting [2]) it was 0.399 ± 0.153 µM; in assay [1] (setting [3]), 0.09 ± 0.051 µM.

For the compound `CCN1Cc2ccccc2C(C2CCN(CC3CN(c4ccc(S(=O)(=O)C5CC5)cc4)C3)CC2)([C@H]2CCC[C@@H]2NC(=O)NC)C1` (mixture of isomers) [compound 289, rac-1-((1S,2R)-2-(4-(1-((1-(4-(cyclopropylsulfonyl)phenyl)azetidin-3-yl)methyl)piperidin-4-yl)-2-ethyl-1,2,3,4-tetrahydroisoquinolin-4-yl)cyclopentyl)-3-methylurea], the 50% inhibitory concentration (IC50) was determined as 4 nM on menin protein, 0.32 µM in assay [1] (setting [2]) and 0.17 µM in assay [1] (setting [3]).
